Consider 5 compounds from PMC10073729, “Synthesis, radiolabeling, and evaluation of 68Ga-labeled aminoquinoxaline derivative as a potent PFKFB3-targeted PET tracer” (Frontiers in Chemistry, 2023).

As a reminder, the IC50 is the midpoint of a concentration-inhibition curve.

The subject of experiment [1] is PFKFB3. To be noted: 2019, cited from earlier work.
Experiment [2] addresses T1, Human Recombinant PFKFB3 Protein (His and GST Tag) (Homo sapiens, UniProt Q16875).
T1 construct: His; GST; purchased SinoBiological
Put plainly: ADP-Glo-based PFKFB3 enzymatic activity inhibition assay. Format: biochemical. As to conditions: triplicate. The source says: All regents used in this section were purchased from Sigma, and the Human Recombinant PFKFB3 Protein (His and GST Tag) was purchased from SinoBiological. The ADP-Glo™ Kinase Assay kit was also obtained from Promega.
The PFKFB3 enzymatic activity assay followed an identical procedure used in previously published literature, along with the same regents and materials ([Boutard et al., 2019]).
In general terms: In ADP-Glo the light output rises with the ADP produced.

The test system of experiment [3] is F2,6BP production in HCT116 cells. Description: Cellular inhibition assay: F2,6BP production in glucose-starved, restimulated HCT116 cells. Format: cell-based. To be noted: Homo sapiens, HCT-116, 25 mM glucose restimulation 4 h, triplicate. Here is the method:
For the cellular inhibition assay, the protocol used in this section was also from the same literature as the PFKFB3 enzymatic activity assay, with minor modifications ([Boutard et al., 2019]). Briefly, glucose-starved HTC116 cells were pretreated with diluted compounds at different concentrations and restimulated with 25 mM glucose for 4 h to trigger glycolytic flux. Cells were then lysed by NaOH ([…]) under 85°C for 10 min and transferred to a HEPES solution (20 mM) neutralized by acetic acid (1 M) to pH 7.5–8.0. The lysates (equal amounts, normalized to protein level) were reacted in a mixture of α-glycerophosphate dehydrogenase (0.17 U), aldolase (0.083 U), pyrophosphate-dependent fructose-6-phosphate kinase from potato (0.17 U) and triosephosphate isomerase (0.83 U) in Tris (pH 8.0), glucose-6-phosphate (17 mM), fructose-6-phosphate (2.5 mM) and magnesium chloride (5.5 mM) in a total volume of 100 µL. The reaction was induced by the addition of NADH (0.14 mM) under 30°C, and the absorbance at 340 nm was measured 30 min post addition. All absorbances for reaction mixtures for test compounds with different concentrations were recorded and used for IC50 calculations in GraphPad Prism 5.0 software.

[4] abbreviates: representative PFKFB3 inhibitors, Figure 1, ref Boyd et al., 2015, Boutard et al., Wang et al., 2020, read-out: IC50 (PFKBF3).

Read-outs that look alike come from different tables or passages of the source.

T1 sequence (Q16875 whole entry): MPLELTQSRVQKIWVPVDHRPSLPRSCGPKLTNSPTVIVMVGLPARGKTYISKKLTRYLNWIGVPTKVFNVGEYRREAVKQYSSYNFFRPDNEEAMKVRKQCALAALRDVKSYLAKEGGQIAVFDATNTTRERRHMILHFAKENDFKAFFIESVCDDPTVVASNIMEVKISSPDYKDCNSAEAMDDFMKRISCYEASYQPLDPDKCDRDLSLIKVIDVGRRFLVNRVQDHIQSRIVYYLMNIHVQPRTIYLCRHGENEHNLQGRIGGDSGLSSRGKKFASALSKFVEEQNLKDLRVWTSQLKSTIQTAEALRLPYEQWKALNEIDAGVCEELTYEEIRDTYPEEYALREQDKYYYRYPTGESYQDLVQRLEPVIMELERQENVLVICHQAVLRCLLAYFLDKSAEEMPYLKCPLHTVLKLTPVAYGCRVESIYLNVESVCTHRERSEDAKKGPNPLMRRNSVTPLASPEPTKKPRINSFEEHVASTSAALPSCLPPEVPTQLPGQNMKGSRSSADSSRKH

With `CC(C)OC(=O)c1cccc(-c2cc(S(=O)(=O)Nc3ccc(C(=O)O)c(O)c3)sc2Cl)c1` [compound 1], the IC50 in experiment [1] (setting [4]) is 0.15 µM.

With `Cc1c(S(=O)(=O)Nc2cccc(-c3nnn[nH]3)c2)oc2ccc(C(C)C)cc12` [compound 2], the IC50 in experiment [1] (setting [4]) was 0.08 µM.

With `Cc1noc(C)c1Cn1nc(C#N)c2cc(Oc3ccc(NC(=O)[C@@H]4CCCN4)cc3)ccc21` [compound 3], the IC50 in experiment [1] (setting [4]) is 0.003 µM.

Consider `CN1CCCC(NC(=O)c2cncc(Nc3cc(-c4ccc5ccn(C)c5c4)c4nccnc4c3)c2)C1` (centres unmarked) [compound 4], for which the IC50 in experiment [2] was 0.0067 ± 0.0023 µM; in experiment [3], 2.3 ± 0.8 µM; in experiment [1] (ref Boutard et al., read-out: IC50 enzymatic PFKFB3 inhibition (reported)) it was 0.002 µM.

Regarding `Cn1ccc2ccc(-c3cc(Nc4cncc(C(=O)NC5CCCN(C(=O)CCC(C(=O)O)N6CCN(CC(=O)O)CCN(CC(=O)O)CCN(CC(=O)O)CC6)C5)c4)cc4nccnc34)cc21` (centres unmarked) [compound 5, 2,2′,2′′-(10-(1-carboxy-4-(3-(5-((8-(1-methyl-1H-indol-6-yl)quinoxalin-6-yl)amino)nicotinamido)piperidin-1-yl)-4-oxobutyl)-1,4,7,10-tetraazacyclododecane-1,4,7-triyl) triacetic acid], the results for the IC50 in experiment [2] and in experiment [3] were 0.0125 ± 0.0045 µM and 5.3 ± 1.4 µM, respectively.
